# Test results: patent publication US8846739B2, “TGR5 agonists” (Exelixis Patent Company LLC, priority 2009, dated 2014)
# Tests used:
# human TGR5 (h-TGR5) = molecular target: T1, human TGR5 (h-TGR5) (Homo sapiens, UniProt Q8TDU6); test: TGR5/CRE-Luciferase Assay; type: cell-based; settings: HEK 293 hTGR5/CRE-Luc cells, 6 hours incubation, read-out: CRE-Luc Agonist (EC50)
# T1 sequence (Q8TDU6 1-330): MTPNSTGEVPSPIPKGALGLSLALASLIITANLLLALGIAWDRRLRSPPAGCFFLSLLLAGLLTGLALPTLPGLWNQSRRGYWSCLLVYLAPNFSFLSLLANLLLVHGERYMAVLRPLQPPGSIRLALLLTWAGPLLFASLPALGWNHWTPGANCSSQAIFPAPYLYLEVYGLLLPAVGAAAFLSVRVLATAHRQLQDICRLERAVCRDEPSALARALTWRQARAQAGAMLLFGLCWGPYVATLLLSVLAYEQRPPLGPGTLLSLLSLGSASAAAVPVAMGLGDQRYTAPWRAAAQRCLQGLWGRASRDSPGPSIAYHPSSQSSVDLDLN
# Description: HEK 293 cells stably expressing human TGR5 (h-TGR5) or mouse TGR5 (m-TGR5) were generated from HEK 293 CRE-Luciferase cells. The day before the assay, HEK 293 hTGR5/CRE-Luc cells were plated in DMEM in a 384 well assay plate at a density of 25 k cells/45 μL per well and grown for 18-20 hours. Compounds were serially diluted in DMEM containing 5% DMSO and 5 µL of compound or media alone was transferred to each well and plates were incubated for 6 hours. Following incubation, 30 μL of lysis/luciferase buffer was added to each well. The luciferase activity was then measured on the EnVision™ plate reader and the dose response data was analyzed using ActivityBase.
# (§1) In the following tables, ECso values determined according to the TGR5 cAMP Assay are noted (cAMP); EC50 values determined according to the TGR5/CRE-Luciferiase Assay are noted (CRE-Luc).
# h-TGR5 = molecular target: T2, h-TGR5 (Homo sapiens, UniProt Q8TDU6); test: TGR5 cAMP Assay using Cisbio cAMP Dynamic 2 htrf assay kit; type: cell-based; settings: hTGR5CRE-luc HEK 293 cells
# T2 sequence (Q8TDU6 1-330): T1 sequence (Q8TDU6 1-330)
# Description: Compounds were diluted in DPBS with 5% DMSO (8-point serial dilution by half logs) in a 96-well plate and 1 μL was transferred to a 384-well assay plate in quadruplicate. The d2-cAMP and anti-cAMP Ab-cryptate stock solution were prepared as per the instructions in the Cisbio™ (Bedford, Mass.) kit. Cells (hTGR5CRE-luc HEK 293 and mTGR5CRE-luc HEK 293) were harvested using cell dissociation buffer and resuspended in DPBS. Cells were adjusted to 0.44×10^6 cells/ml followed by addition of IBMX to a final concentration of 0.5 mM. The cells were then mixed with d2-cAMP solution (7.1 mL cells+100 ul d2-cAMP) and 4000 cells (9 μL) were transferred to each well of the 384-well assay plate. Cells without d2-cAMP were added to eight wells as a negative control. The plate was covered and incubated at room temp for 30 min. Then 10 μL of Ab-cryptate solution was added to each well of the assay plate and incubated for 1 hr. The plate was read on an EnVision™ plate reader (Perkin-Elmer, Waltham, Mass.) and the DeltaF value was calculated as per the instructions in the Cisbio™ kit.
# as §1
Compound,EC50 (human TGR5 (h-TGR5)) [nM],EC50 (h-TGR5) [nM]
"2-({[3-chloro-5-fluoro-4-({[5-{1-[4-fluoro-3-(methyloxy)phenyl]-1-methylethyl}-1-(4-fluorophenyl)-1H-imidazol-2-yl]thio}methyl)phenyl]carbonyl}amino)-N,N,N-trimethylethanaminium [Example 1d]",< 100,< 100
"COc1cc(C(C)(C)c2cnc(SCc3c(F)cc(S(=O)(=O)NCCC[n+]4ccn(C)c4)cc3Cl)n2-c2ccc(F)cc2)ccc1F [Compound 10, 3-(3-(3-chloro-5-fluoro-4-((5-(2-(4-fluoro-3-methoxyphenyl)propan-2-yl)-1-(4-fluorophenyl)-1H-imidazol-2-ylthio)methyl)phenylsulfonamido)propyl)-1-methyl-1H-imidazol-3-ium methanesulfonate]",< 100,< 100
"COc1cc(C(C)(C)c2cnc(SCc3c(F)cc(S(=O)(=O)NCCc4ccc[n+](C)c4)cc3Cl)n2-c2ccc(F)cc2)ccc1F [Compound 11, 3-(2-(3-chloro-5-fluoro-4-((5-(2-(4-fluoro-3-methoxyphenyl)propan-2-yl)-1-(4-fluorophenyl)-1H-imidazol-2-ylthio)methyl)phenylsulfonamido)ethyl)-1-methylpyridinium chloride]",< 100,< 100
"COc1cc(C(C)(C)c2cnc(SCc3c(F)cc(S(=O)(=O)N[C@H]4CCC[N+](C)(C)C4)cc3Cl)n2-c2ccc(F)cc2)ccc1Cl [Compound 11a, (3S)-3-({[3-chloro-4-({[5-{1-[4-chloro-3-(methyloxy)phenyl]-1-methylethyl}-1-(4-fluorophenyl)-1H-imidazol-2-yl]thio}methyl)-5-fluorophenyl]sulfonyl}amino)-1,1-dimethylpiperidinium]",< 100,< 100
"COc1cc(C(C)(C)c2cnc(SCc3c(F)cc(S(=O)(=O)NC4CC[N+](C)(C)CC4)cc3F)n2-c2ccc(F)cc2)ccc1Cl [Compound 11b, 4-({[4-({[5-{1-[4-chloro-3-(methyloxy)phenyl]-1-methylethyl}-1-(4-fluorophenyl)-1H-imidazol-2-yl]thio}methyl)-3,5-difluorophenyl]sulfonyl}amino)-1,1-dimethylpiperidinium]",< 100,< 100
"COc1cc(C(C)(C)c2cnc(SCc3c(F)cc(S(=O)(=O)N4CCC([N+](C)(C)C)CC4)cc3F)n2-c2ccc(F)cc2)ccc1Cl [Compound 11c, 1-{[4-({[5-{1-[4-chloro-3-(methyloxy)phenyl]-1-methylethyl}-1-(4-fluorophenyl)-1H-imidazol-2-yl]thio}methyl)-3,5-difluorophenyl]sulfonyl}-N,N,N-trimethylpiperidin-4-aminium]",< 100,< 100
"COc1cc(C(C)(C)c2cnc(SCc3c(F)cc(S(=O)(=O)N[C@@H]4CCC[N+](C)(C)C4)cc3F)n2-c2ccc(F)cc2)ccc1Cl [Compound 11d, (3R)-3-({[4-({[5-{1-[4-chloro-3-(methyloxy)phenyl]-1-methylethyl}-1-(4-fluorophenyl)-1H-imidazol-2-yl]thio}methyl)-3,5-difluorophenyl]sulfonyl}amino)-1,1-dimethylpiperidinium]",< 100,< 100
"COc1cc(C(C)(C)c2cnc(SCc3c(F)cc(S(=O)(=O)N[C@H]4CCC[N+](C)(C)C4)cc3F)n2-c2ccc(F)cc2)ccc1Cl [Compound 11e, (3S)-3-({[4-({[5-{1-[4-chloro-3-(methyloxy)phenyl]-1-methylethyl}-1-(4-fluorophenyl)-1H-imidazol-2-yl]thio}methyl)-3,5-difluorophenyl]sulfonyl}amino)-1,1-dimethylpiperidinium]",< 100,< 100
"COc1cc(C(C)(C)c2cnc(SCc3c(F)cc(S(=O)(=O)N4CCC([N+](C)(C)C)CC4)cc3Cl)n2-c2ccc(F)cc2)ccc1Cl [Compound 11f, 1-{[3-chloro-4-({[5-{1-[4-chloro-3-(methyloxy)phenyl]-1-methylethyl}-1-(4-fluorophenyl)-1H-imidazol-2-yl]thio}methyl)-5-fluorophenyl]sulfonyl}-N,N,N-trimethylpiperidin-4-aminium]",< 100,< 100
"COc1cc(C(C)(C)c2cnc(SCc3c(F)cc(S(=O)(=O)N4CCC[C@@H]([N+](C)(C)C)C4)cc3Cl)n2-c2ccc(F)cc2)ccc1Cl [Compound 11g, (3R)-1-{[3-chloro-4-({[5-{1-[4-chloro-3-(methyloxy)phenyl]-1-methylethyl}-1-(4-fluorophenyl)-1H-imidazol-2-yl]thio}methyl)-5-fluorophenyl]sulfonyl}-N,N,N-trimethylpiperidin-3-aminium]",< 100,< 100
"COc1cc(C(C)(C)c2cnc(SCc3c(F)cc(S(=O)(=O)N4CCC[C@H]([N+](C)(C)C)C4)cc3Cl)n2-c2ccc(F)cc2)ccc1Cl [Compound 11h, (3S)-1-{[3-chloro-4-({[5-{1-[4-chloro-3-(methyloxy)phenyl]-1-methylethyl}-1-(4-fluorophenyl)-1H-imidazol-2-yl]thio}methyl)-5-fluorophenyl]sulfonyl}-N,N,N-trimethylpiperidin-3-aminium]",< 100,< 100
"COc1cc(C(C)(C)c2cnc(SCc3c(F)cc(S(=O)(=O)N4CC[C@@H]([N+](C)(C)C)C4)cc3Cl)n2-c2ccc(F)cc2)ccc1Cl [Compound 11i, (3R)-1-{[3-chloro-4-({[5-{1-[4-chloro-3-(methyloxy)phenyl]-1-methylethyl}-1-(4-fluorophenyl)-1H-imidazol-2-yl]thio}methyl)-5-fluorophenyl]sulfonyl}-N,N,N-trimethylpyrrolidin-3-aminium]",< 100,< 100
"CC[N+](C)(C)C1CCN(S(=O)(=O)c2cc(F)c(CSc3ncc(C(C)(C)c4ccc(Cl)c(OC)c4)n3-c3ccc(F)cc3)c(Cl)c2)CC1 [Compound 11j, 1-{[3-chloro-4-({[5-{1-[4-chloro-3-(methyloxy)phenyl]-1-methylethyl}-1-(4-fluorophenyl)-1H-imidazol-2-yl]thio}methyl)-5-fluorophenyl)sulfonyl}-N-ethyl-N,N-dimethylpiperidin-4-aminium]",< 100,< 100
"COc1cc(C(C)(C)c2cnc(SCc3c(F)cc(S(=O)(=O)N4CC[N+](C)(C)CC4)cc3Cl)n2-c2ccc(F)cc2)ccc1Cl [Compound 11k, 4-{[3-chloro-4-({[5-{1-[4-chloro-3-(methyloxy)phenyl]-1-methylethyl}-1-(4-fluorophenyl)-1H-imidazol-2-yl]thio}methyl)-5-fluorophenyl]sulfonyl}-1,1-dimethylpiperazin-1-ium]",< 100,< 100
"COc1cc(C(C)(C)c2cnc(SCc3c(F)cc(S(=O)(=O)N4CC[C@H]([N+](C)(C)C)C4)cc3Cl)n2-c2ccc(F)cc2)ccc1Cl [Compound 11l, (3S)-1-{[3-chloro-4-({[5-{1-[4-chloro-3-(methyloxy)phenyl]-1-methylethyl}-1-(4-fluorophenyl)-1H-imidazol-2-yl]thio}methyl)-5-fluorophenyl]sulfonyl}-N,N,N-trimethylpyrrolidin-3-aminium]",< 100,< 100
